{
  "source": "patent US10112929B2",
  "about": "“Lactams as inhibitors of rock” (BRISTOL-MYERS SQUIBB COMPANY, priority 2015, dated 2018)",
  "note": "Where a name gives a salt, the structure may show the parent alone.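 Further: rho kinase enzyme reaction halted with EDTA, phospho- and non-phospho peptide separated for read-out, kinase activity inhibition derived across a dose-response series, DMSO under 2%.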",
  "data": [
    {"target": "ROCK2 (Homo sapiens (Human), UniProt O75116)", "sequence (O75116 whole entry, species assumed)": "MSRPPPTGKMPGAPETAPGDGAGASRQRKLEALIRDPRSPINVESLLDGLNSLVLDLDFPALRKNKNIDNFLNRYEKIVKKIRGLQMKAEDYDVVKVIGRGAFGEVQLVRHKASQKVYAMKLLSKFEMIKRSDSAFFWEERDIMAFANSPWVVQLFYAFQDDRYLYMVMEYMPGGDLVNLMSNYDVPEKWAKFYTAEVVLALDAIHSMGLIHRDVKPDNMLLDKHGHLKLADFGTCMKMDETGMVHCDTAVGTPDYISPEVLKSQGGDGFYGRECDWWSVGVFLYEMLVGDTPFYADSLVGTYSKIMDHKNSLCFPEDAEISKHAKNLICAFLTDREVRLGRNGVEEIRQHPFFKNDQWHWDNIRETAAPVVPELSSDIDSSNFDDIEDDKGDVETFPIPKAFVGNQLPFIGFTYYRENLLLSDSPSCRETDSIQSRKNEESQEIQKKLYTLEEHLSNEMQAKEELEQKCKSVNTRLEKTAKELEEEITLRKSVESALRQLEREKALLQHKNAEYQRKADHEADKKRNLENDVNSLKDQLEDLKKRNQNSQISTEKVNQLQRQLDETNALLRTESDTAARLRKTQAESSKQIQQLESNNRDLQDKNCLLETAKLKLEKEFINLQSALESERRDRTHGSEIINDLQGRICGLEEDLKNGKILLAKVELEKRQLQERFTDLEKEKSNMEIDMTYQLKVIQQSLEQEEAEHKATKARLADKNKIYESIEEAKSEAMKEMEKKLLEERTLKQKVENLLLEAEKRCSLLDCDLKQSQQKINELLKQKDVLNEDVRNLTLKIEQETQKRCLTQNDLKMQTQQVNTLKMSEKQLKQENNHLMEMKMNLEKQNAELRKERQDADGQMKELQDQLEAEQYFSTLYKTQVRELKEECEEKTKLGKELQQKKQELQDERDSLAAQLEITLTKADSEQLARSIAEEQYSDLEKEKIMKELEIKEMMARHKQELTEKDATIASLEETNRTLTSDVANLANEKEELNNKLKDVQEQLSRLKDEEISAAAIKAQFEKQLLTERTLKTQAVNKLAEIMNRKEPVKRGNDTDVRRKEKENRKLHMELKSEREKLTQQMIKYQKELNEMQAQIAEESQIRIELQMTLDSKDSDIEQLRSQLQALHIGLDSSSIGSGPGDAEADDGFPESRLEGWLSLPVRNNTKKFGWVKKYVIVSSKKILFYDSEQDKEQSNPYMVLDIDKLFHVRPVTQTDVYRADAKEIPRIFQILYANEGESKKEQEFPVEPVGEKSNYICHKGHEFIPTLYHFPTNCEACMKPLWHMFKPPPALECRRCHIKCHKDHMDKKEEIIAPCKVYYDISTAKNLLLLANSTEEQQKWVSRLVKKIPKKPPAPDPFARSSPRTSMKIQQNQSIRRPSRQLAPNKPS", "experiment": "biochemical", "units": {"IC50": "µM"}, "values": [
      {"smiles": "Cc1cc(N2CCC(Nc3cccc(OCC4CC4)c3)C2=O)ncc1-c1cn[nH]c1", "note": "(single isomer, unassigned) [Example 206, 3-((3-(cyclopropylmethoxy)phenyl)amino)-1-(4-methyl-5-(1H-pyrazol-4-yl)pyridin-2-yl)pyrrolidin-2-one]", "IC50": "0.1 to 2.2"},
      {"smiles": "COc1nc(N2CCC(Nc3cccc(NS(C)(=O)=O)c3)C2=O)ccc1-c1cn[nH]c1", "note": "(racemic) [Example 265, N-(3-((1-(6-methoxy-5-(1H-pyrazol-4-yl)pyridin-2-yl)-2-oxopyrrolidin-3-yl)amino)phenyl)methanesulfonamide]", "IC50": "0.01 to 0.1"},
      {"smiles": "CCc1nc(N2CCC(Nc3cccc(OC)c3)C2=O)ccc1-c1cn[nH]c1", "note": "(single isomer, unassigned) [Example 313, 1-(6-ethyl-5-(1H-pyrazol-4-yl)pyridin-2-yl)-3-((3-methoxyphenyl)amino) pyrrolidin-2-one]", "IC50": "< 0.01"},
      {"smiles": "COc1cccc(NC2CCN(c3ccc(-c4cn[nH]c4)cc3)C2=O)n1", "note": "(racemic) [Example 223, 1-(4-(1H-pyrazol-4-yl)phenyl)-3-((6-methoxypyridin-2-yl)amino)pyrrolidin-2-one]", "IC50": "0.01 to 0.1"},
      {"smiles": "COc1ccc(Cl)c(NC2CCN(c3ccc(-c4cn[nH]c4)c(OC)n3)C2=O)c1", "note": "(racemic) [Example 261, 3-((2-chloro-5-methoxyphenyl)amino)-1-(6-methoxy-5-(1H-pyrazol-4-yl)pyridin-2-yl)pyrrolidin-2-one]", "IC50": "0.01 to 0.1"},
      {"smiles": "COc1ccc(F)c(NC2CCN(c3ccc(-c4cn[nH]c4)cc3F)C2=O)c1", "note": "(single isomer, unassigned) [Example 341, 1-(2-fluoro-4-(1H-pyrazol-4-yl)phenyl)-3-((2-fluoro-5-methoxyphenyl)amino) pyrrolidin-2-one]", "IC50": "0.01 to 0.1"},
      {"smiles": "COc1nc(N2CCC(Nc3cccc(C#N)c3)C2=O)ccc1-c1cn[nH]c1", "note": "(racemic) [Example 257, 3-((1-(6-methoxy-5-(1H-pyrazol-4-yl)pyridin-2-yl)-2-oxopyrrolidin-3-yl)amino)benzonitrile]", "IC50": "< 0.01"},
      {"smiles": "O=C1C(Nc2cnccn2)CCN1c1ccc(-c2cn[nH]c2)cc1", "note": "(racemic) [Example 226, 1-(4-(1H-pyrazol-4-yl)phenyl)-3-(pyrazin-2-ylamino)pyrrolidin-2-one]", "IC50": "0.01 to 0.1"},
      {"smiles": "COc1cc(N2CCC(Nc3cc(F)cc(F)c3)C2=O)ccc1-c1cn[nH]c1", "note": "(single isomer, unassigned) [Example 146, 3-((3,5-difluorophenyl)amino)-1-(3-methoxy-4-(1H-pyrazol-4-yl)phenyl) pyrrolidin-2-one]", "IC50": "< 0.01"},
      {"smiles": "COCc1cc(N2CCC(Nc3cccc(OC)c3)C2=O)ccc1-c1cn[nH]c1", "note": "(single isomer, unassigned) [Example 183, 1-(3-(methoxymethyl)-4-(1H-pyrazol-4-yl)phenyl)-3-((3-methoxyphenyl)amino) pyrrolidin-2-one]", "IC50": "0.1 to 2.2"},
      {"smiles": "COc1cccc(NC2C(=O)N(c3ccc(-c4cn[nH]c4)cc3)C[C@H]2CO)c1", "note": "(single isomer, unassigned) [Example 323]", "IC50": "< 0.01"},
      {"smiles": "O=C1C(Nc2cccc(OC(F)F)c2)CCN1c1ccc(-c2cn[nH]c2)cc1", "note": "(stereo not drawn) [Example 7, 1-(4-(1H-pyrazol-4-yl)phenyl)-3-((3-(difluoromethoxy)phenyl)amino)pyrrolidin-2-one]", "IC50": "< 0.01"},
      {"smiles": "O=C1C(Nc2cccc(F)c2)CCN1c1ccc(-c2cn[nH]c2)c(F)c1", "note": "(single isomer, unassigned) [Example 48, 1-(3-fluoro-4-(1H-pyrazol-4-yl)phenyl)-3-((3-fluorophenyl)amino)pyrrolidin-2-one]", "IC50": "0.01 to 0.1"},
      {"smiles": "COc1cccc(NC2CCN(c3ccc(-c4ccncc4F)c(OC)n3)C2=O)c1", "note": "(stereo not drawn) [Example 118, 1-(3′-Fluoro-2-methoxy-[3,4′-bipyridin]-6-yl)-3-((3-methoxyphenyl)amino) pyrrolidin-2-one]", "IC50": "< 0.01"},
      {"smiles": "COc1cccc(NC2CCN(c3ccc(-c4ccnc(N)c4)cc3)C2=O)c1", "note": "(single isomer, unassigned) [Example 76, 1-(4-(2-aminopyridin-4-yl)phenyl)-3-((3-methoxyphenyl)amino) pyrrolidin-2-one]", "IC50": "0.1 to 2.2"},
      {"smiles": "COc1cc(NC2CCN(c3ccc(-c4cn[nH]c4)cc3F)C2=O)ccc1F", "note": "(single isomer, unassigned) [Example 330, 3-((4-fluoro-3-methoxyphenyl)amino)-1-(2-fluoro-4-(1H-pyrazol-4-yl)phenyl) pyrrolidin-2-one]", "IC50": "0.01 to 0.1"},
      {"smiles": "COc1nc(N2CCC(N3CC[C@H](F)C3)C2=O)ccc1-c1cn[nH]c1", "note": "(mixture of isomers) [Example 290, (3S)-3-fluoro-1′-(6-methoxy-5-(1H-pyrazol-4-yl)pyridin-2-yl)-[l,3′-bipyrrolidin]-2′-one hydrochloride]", "IC50": "0.1 to 2.2"},
      {"smiles": "COc1cccc(NC2CCN(c3ccc(-c4ccnc5[nH]ccc45)c(C)n3)C2=O)c1", "note": "(single isomer, unassigned) [Example 120, 3-((3-methoxyphenyl)amino)-1-(6-methyl-5-(1H-pyrrolo[2,3-b]pyridin-4-yl)pyridin-2-yl)pyrrolidin-2-one]", "IC50": "0.01 to 0.1"},
      {"smiles": "COc1cc(N2CCC(Nc3c(F)cccc3OC)C2=O)ccc1-c1cn[nH]c1", "note": "(single isomer, unassigned) [Example 135, 3-((2-fluoro-6-methoxyphenyl)amino)-1-(3-methoxy-4-(1H-pyrazol-4-yl)phenyl) pyrrolidin-2-one]", "IC50": "0.01 to 0.1"},
      {"smiles": "O=C1C(c2ccccc2)CCN1c1ccc(-c2cn[nH]c2)cc1", "note": "(stereo not drawn) [Example 101, 1-(4-(1H-pyrazol-4-yl)phenyl)-3-phenylpyrrolidin-2-one]", "IC50": "0.01 to 0.1"},
      {"smiles": "COc1cccc(NC2CCN(c3ccc(-c4cn[nH]c4)c(OC)n3)C2=O)c1", "note": "(single isomer, unassigned) [Example 196, 1-(6-methoxy-5-(1H-pyrazol-4-yl)pyridin-2-yl)-3-((3-methoxyphenyl)amino) pyrrolidin-2-one]", "IC50": "< 0.01"},
      {"smiles": "O=C1[C@H](Nc2cccc(OCC3CC3)c2)CCN1c1ccc(-c2cn[nH]c2)cc1", "note": "(single isomer, unassigned) [Example 235, 1-(4-(1H-pyrazol-4-yl)phenyl)-3-((3-(cyclopropylmethoxy)phenyl)amino) pyrrolidin-2-one]", "IC50": "< 0.01"},
      {"smiles": "COc1cccc(CCC2CCN(c3ccc(-c4cn[nH]c4)cc3)C2=O)c1", "note": "(stereo not drawn) [Example 99, 1-(4-(1H-pyrazol-4-yl)phenyl)-3-(3-methoxyphenethyl)pyrrolidin-2-one]", "IC50": "0.01 to 0.1"},
      {"smiles": "O=C1C(Cc2c(F)cccc2F)CCN1c1ccc(-c2cn[nH]c2)cc1", "note": "(stereo not drawn) [Example 94, 1-(4-(1H-pyrazol-4-yl)phenyl)-3-(2,6-difluorobenzyl)pyrrolidin-2-one]", "IC50": "0.1 to 2.2"},
      {"smiles": "COc1nc(N2CCC(Nc3ccc4ncsc4c3)C2=O)ccc1-c1cn[nH]c1", "note": "(racemic) [Example 259, 3-(benzo[d]thiazol-6-ylamino)-1-(6-methoxy-5-(1H-pyrazol-4-yl)pyridin-2-yl)pyrrolidin-2-one]", "IC50": "< 0.01"},
      {"smiles": "COc1cc(F)cc(NC2CCN(c3ccc(-c4cn[nH]c4)cc3)C2=O)c1", "note": "(single isomer, unassigned) [Example 26, 1-(4-(1H-pyrazol-4-yl)phenyl)-3-((3-fluoro-5-methoxyphenyl)amino)pyrrolidin-2-one]", "IC50": "< 0.01"},
      {"smiles": "CCOc1cc(N2CCC(Nc3cc(F)cc(OC)c3)C2=O)ccc1-c1cn[nH]c1", "note": "(single isomer, unassigned) [Example 37, 1-(3-ethoxy-4-(1H-pyrazol-4-yl)phenyl)-3-((3-fluoro-5-methoxyphenyl)amino)pyrrolidin-2-one]", "IC50": "0.1 to 2.2"}
    ]}
  ]
}
